Experimental data as given in PMC3975964, “Protective effect of a sesamin derivative, 3-bis (3-methoxybenzyl) butane-1, 4-diol on ischemic and hypoxic neuronal injury” (Journal of Biomedical Science, 2014).

Key:
AKT-1 = test: Western blot of hypoxia-induced signaling, BV-2: AKT-1; assay type: cell-based, murine; conditions: BV-2 cells, 10 min hypoxia, BBD 20 μM
Protocol: (§1) On the day of experiment, culture media were replaced with glucose-free DMEM, then, gassed with 85% N2, 10% H2, and 5% CO2 for various time periods in the absence or presence of various doses of BBD.
(§2) Samples containing 25 μg of protein were separated on 12.5% (w/v) sodium dodecyl sulfate-polyacrylamide gels, and transferred to immobilon polyvinylidenedifluoride membranes (Millipore, Bedford, USA). The membranes were incubated for 2 h with 5% (w/v) dry skim milk in TBST buffer to block non-specific binding, then ERK, p38 JNK, AKT-1, COX-2, caspase-3, β-actin proteins for neuron cells were detected by a chemiluminescence detection system according to the manufacturer’s instructions (ECL, Amersham, Berkshire, UK).

MDA in PC12 cells = test: Lipid peroxidation (MDA) under hypoxia, PC12; assay type: cell-based, rat; conditions: hypoxia 30 min, BBD 1, 10, 20 μM
Excerpt: as §1
(§3) Lipid peroxidation is quantified by measuring malondialdehyde (MDA) of PC12 cells and brain tissue of SD rats by lipid peroxidation (LPO) assay kit (Cayman). This kit works on the principle of condensation of one molecule of either MDA or 4-hydroxyalkenals with two molecules of N-methyl-2-phenylindole to yield a stable chromophore. MDA levels were assayed by measuring the amount expressed in 5 × 10^5 cells of PC12 and SD brain tissue, and the absorbance at 500 nm was determined using a microplate reader (spectraMAX 340).

neurons = test: Toxicity of BBD alone to neurons; assay type: cell-based; conditions: BBD 100 μM alone, data not shown
ERK [1] = test: Western blot of hypoxia-induced signaling, BV-2: ERK; assay type: cell-based, murine; conditions: BV-2 cells, 10 min hypoxia, BBD 20 μM
Protocol: as §1, §2

ROS in PC12 cells = test: Hypoxia-induced ROS generation (DCF), PC12; assay type: cell-based, rat; conditions: hypoxia 30 min, BBD 1, 10, 20 μM
Protocol: as §1
Intracellular accumulation of ROS was determined using H2DCF-DA, which is a nonfluorescent compound that accumulates in cells following deacetylation. H2DCF then reacts with ROS to form fluorescent dichlorofluorescein (DCF). PC12 cells were plated in 96-well plates and grown for 24 h before addition of DMEM plus 10 μM H2DCF-DA, incubated for 60 min at 37°C, and treated with various concentrations of BBD for hypoxia 30 min. Cells were then washed twice at room temperature with Hank’s balanced salt solution (HBSS without phenol red). Cellular fluorescence was monitored on a Fluoroskan Ascent fluorometer (Labsystems Oy, Helsinki, Finland) using an excitation wavelength of 485 nm and emission wavelength of 538 nm.

ROS in BV-2 cells = test: Hypoxia-induced ROS generation (DCF), BV-2; assay type: cell-based, murine
[2] = tested on: superoxide dismutase (SOD) activity; test: SOD activity of ischemic brain; assay type: in vivo, Sprague–Dawley rats; conditions: SD rat brain, BBD 10 mg/kg i.p. 90 min after MCAO
Protocol: (§4) Twenty-four male Sprague–Dawley (SD) rats (200~250 gm) were purchased from National Animal Center, Taipei, Taiwan and randomly divided into the control (normal saline), and BBD groups. The experiment was approved by Institutional Animal Care and Use Committee, Taichung Veterans General Hospital (IACUC LA-97490). Rats were injected intraperitoneally (i.p.) with BBD (10 mg/kg) 90 min after MACO experiment. Each SD rat was anesthetized with chlorohydrate (400 mg/kg) i.p. and its body temperature was maintained at 37°C with a heating pad (CMA/150). A midline neck incision was made and the right carotid artery was exposed and separated from the vago-sympathetic trunk. The right carotid artery was loosely encircled with a 4-O suture for later occlusion. The SD rat’s head was placed in a stereotaxic frame (David Kopf, CA, USA) with the nose bar positioned 4.0 mm below the horizontal line. Following a midline incision, the skull was partially removed to expose the right middle cerebral artery. The middle cerebral artery was loosely encircled with an 8-O suture for later occlusion. A focal cerebral ischemia was induced by occlusion of the right common carotid artery and the right cerebral artery (MCAO) for 60 min, followed by reperfusion. […]
Superoxide dismutase (SOD) activity was determined by a Superoxide Dismutase assay kit (Cayman, Ann Arbor, MI, USA). […]

COX-2 [3] = test: Western blot of hypoxia-induced signaling, BV-2: COX-2; assay type: cell-based, murine; conditions: BV-2 cells, 10 min hypoxia, BBD 20 μM
Protocol: as §1, §2

PC12 cells [4] = test: LDH release under hypoxia, PC12; assay type: cell-based, rat; conditions: BBD 1, 10, 20 μM
Protocol: (§5) Murine BV-2 microglial cell line was maintained in DMEM supplemented with 10% (v/v) FBS, 100 U/ml penicillin and 100 μg/ml streptomycin (P/S) in a humidified incubator under 5% CO2 at 37°C. Rat pheochromacytoma PC12 cell line was maintained in DMEM supplemented with 10% FBS, 5% horse serum, P/S at 37°C under 5% CO2. Confluent cultures were passaged by trypsinization. In all experiments, the cells were treated with BBD immediately before hypoxia. BBD was dissolved in DMSO. The final concentration of DMSO added to cells never exceeded 0.1% (v/v).
as §1
(§6) Cytotoxicity was determined by measuring the release of LDH. PC12 or BV-2 cells treated with various concentrations of BBD were stressed with hypoxia for one hour and the supernatant was then assayed for LDH activity. An absorbance was read at 490/630 nm using a spectraMAX 340 microtiter plate reader. Data were expressed as the mean percent of viable cells vs. the control.

ERK [5] = test: Western blot of hypoxia-induced signaling, PC12: ERK; assay type: cell-based, rat; conditions: PC12 cells, 10 min hypoxia (Figure 5C), BBD 20 μM
Protocol: as §1, §2

COX-2 [6] = test: Western blot of hypoxia-induced signaling, PC12: COX-2; assay type: cell-based, rat; conditions: PC12 cells, 10 min hypoxia (Figure 5C), BBD 20 μM
Protocol: as §1, §2

focal cerebral ischemia = test: Focal cerebral ischemia (MCAO), infarct size by TTC staining; assay type: in vivo, Sprague–Dawley rats; conditions: SD rats, BBD 10 mg/kg i.p. 90 min after MCAO; ischemia group 16.1%
Protocol: as §4, with “Sprague-Dawley” for “Sprague–Dawley”, “rat's” for “rat’s”

IL-6 = test: Hypoxia-induced IL-6 production (ELISA), BV-2; assay type: cell-based, murine
Protocol: as §1
(§7) Cytokines (IL-1β, IL-6) and PGE2 were measured using ELISA kits (R&D, Minneapolis, MN, USA). The absorbance at 450 nm was determined using a microplate reader (spectraMAX 340).

BV-2 cells [7] = test: MTT cell viability under hypoxia, BV-2; assay type: cell-based, murine; conditions: hypoxia 30 min, BBD 1, 10, 20 μM
Protocol: as §5, §1
(§8) Cell viability was measured using blue formazan that was metabolized from colorless 3-(4,5-dimethyl-thiazol-2-yl)-2,5-diphenyl tetrazolium bromide (MTT) by mitochondrial dehydrogenases, which are active only in live cells. PC12 or BV2 cells were preincubated in 24-well plates at a density of 5 × 10^5 cells per well for 24 h. […] One hour later, 200 μl of solubilization solution were added to each well and absorption values read at 540 nm on microtiter plate reader (spectraMAX 340, Molecular Devices, Sunnyvale, CA, USA). Data were expressed as the mean percent of viable cells vs. control.

p38 [8] = test: Western blot of hypoxia-induced signaling, BV-2: p38; assay type: cell-based, murine; conditions: BV-2 cells, 10 min hypoxia, BBD 20 μM
Protocol: as §1, §2

Caspase-3 = test: Western blot of hypoxia-induced signaling, BV-2: Caspase-3; assay type: cell-based, murine; conditions: BV-2 cells, 10 min hypoxia, BBD 20 μM
Protocol: as §1, §2

JNK [9] = test: Western blot of hypoxia-induced signaling, BV-2: JNK; assay type: cell-based, murine; conditions: BV-2 cells, 10 min hypoxia, BBD 20 μM
Protocol: as §1, §2

BV-2 cells [10] = test: LDH release under hypoxia, BV-2; assay type: cell-based, murine; conditions: BBD 1, 10, 20 μM
Protocol: as §5, §1, §6

[11] = PAMPA-BBB membrane permeability assay
Protocol: The blood–brain barrier limits drug access into the brain, due to tight junctions, membrane drug transporters, and unique lipid composition. Porcine whole-brain lipid is successfully used in passive permeability test for CNS drugs.
The parallel artificial membrane permeation assay (PAMPA) was carried out in a sandwich-like 96-well PAMPA plate formed by a top filter plate containing acceptor wells and a bottom plate containing donor wells. Each composite well was divided into two chambers: 300 μl of donor solution (test article or QC standards) at the bottom and 200 μl of acceptor buffer (PBS buffer containing 5% DMSO) at the top, separated by a polyvinylidene fluoride (PVDF, 0.45 μm pore size) membrane, coated with 4 μl of 20 mg/ml porcine polar brain lipid (PBL) in n-dodecane. […] The final DMSO concentration in working stock solution is 5%. Each compound was performed in triplicate. The test compound diffused from the donor well through the lipid membrane and into the acceptor well. The sandwich plate was placed with the plate lid and incubated at room temperature for approximately 18 h. After reaching diffusion equilibration, the PAMPA sandwich plate was disassembled and the concentration of drug in the acceptor, the donor, and the reference wells was determined using a TECAN microplate reader (Durham, NC, USA).

PC12 cells [12] = test: MTT cell viability under hypoxia, PC12; assay type: cell-based, rat; conditions: hypoxia 30 min, BBD 1 to 20 μM
Protocol: as §5, §1, §8

JNK [13] = test: Western blot of hypoxia-induced signaling, PC12: JNK; assay type: cell-based, rat; conditions: PC12 cells, 10 min hypoxia (Figure 5C), BBD 20 μM
Protocol: as §1, §2

PGE2 = test: Hypoxia-induced PGE2 release (ELISA), BV-2; assay type: cell-based, murine; conditions: BV-2 cells, hypoxia 30 min, BBD 10 and 20 μM
Protocol: as §1, §7

p38 [14] = test: Western blot of hypoxia-induced signaling, PC12: p38; assay type: cell-based, rat; conditions: PC12 cells, 10 min hypoxia (Figure 5C), BBD 20 μM
Protocol: as §1, §2

MDA in BV-2 cells = test: Lipid peroxidation (MDA) under hypoxia, BV-2; assay type: cell-based, murine; conditions: hypoxia 30 min, BBD 1, 10, 20 μM
IL-1 = test: Hypoxia-induced IL-1 production (ELISA), BV-2; assay type: cell-based, murine
Protocol: as §1, §7

[15] = tested on: malondialdehyde (MDA) of brain tissue; test: Lipid peroxidation (MDA) of ischemic brain tissue; assay type: in vivo, Sprague–Dawley rats; conditions: SD rat brain, BBD 10 mg/kg i.p. 90 min after MCAO
Protocol: as §4, with “artery.” for “artery. The middle cerebral artery was loosely encircled with an 8-O suture for later occlusion. A focal cerebral ischemia was induced by occlusion of the right common carotid artery and the right cerebral artery (MCAO) for 60 min, followed by reperfusion.”
as §3, with “This kit works on the principle of condensation of one molecule of either MDA or 4-hydroxyalkenals with two molecules of N-methyl-2-phenylindole to yield a stable chromophore.” left out

[16] = PAMPA-BBB, known value; no reference given; cited from earlier work
[17] = BV-2 cells, hypoxia 30 min, BBD 1, 10, 20 μM
[18] = hypoxia, concentration not given

## COc1cccc(CC(CO)C(CO)Cc2cccc(OC)c2)c1 (stereo not shown) [BBD, 3-bis (3-methoxybenzyl) butane-1,4-diol]
AKT-1
  reduced expression of AKT-1: 45 ± 6%
MDA in PC12 cells
  hypoxia-induced increase in MDA level: suppressed
neurons
  toxicity to neurons: not toxic
ERK [1]
  reduced expression of ERK: 10 ± 7%
ROS in PC12 cells
  hypoxia-induced ROS accumulation (DCF signal): decreasing the ROS accumulation
ROS in BV-2 cells; [17]
  hypoxia-induced ROS accumulation (DCF signal): decreasing the ROS accumulation
ROS in BV-2 cells; hypoxia, cell line and concentration not stated
  inhibition of hypoxia-induced ROS production: 40-50%
[2]
  increase of SOD activity as compared to the ischemia group: 24%
[2]; ischemia group 68 μ/mL
  SOD activity: 84 μ/mL
COX-2 [3]
  reduced expression of COX-2: 13 ± 7%
PC12 cells [4]
  hypoxia-induced LDH release: decreased
ERK [5]
  suppressed hypoxia induced expression of ERK: 9 ± 7%
COX-2 [6]
  suppressed hypoxia induced expression of COX-2: 75 ± 11%
Focal cerebral ischemia
  infarct size: 4.9%
IL-6; [17]
  hypoxia-induced IL-6 production: dose-dependently decreased
IL-6; [18]
  inhibition of hypoxia-induced IL-6 production: 40-50%
BV-2 cells [7]
  cell viability (MTT) under hypoxia: increased
p38 [8]
  reduced expression of p38: -8 ± 10%
Caspase-3
  reduced expression of Caspase-3: 50 ± 7%
JNK [9]
  reduced expression of JNK: 88 ± 6%
BV-2 cells [10]
  hypoxia-induced LDH release: reduced
[11]; PAMPA-BBB predicted BBB permeation class
  Classification: BBB+ (BBB + compound (high BBB permeation predicted): Pe (10^-6 cm s^-1) > 4.0)
[11]; pig, PAMPA, pH 7.4
  Papp at 100 μg/ml: 209 ± 30.5 nm/s
PC12 cells [12]
  cell viability (MTT) under hypoxia: preserved
JNK [13]
  suppressed hypoxia induced expression of JNK: 86 ± 5%
PGE2
  hypoxia-induced PGE2 release: decreased PGE2 release from BV-2 cells significantly
p38 [14]
  suppressed hypoxia induced expression of p38: -10 ± 9%
MDA in BV-2 cells
  hypoxia-induced increase in MDA level: suppressed
IL-1; [17]
  hypoxia-induced IL-1 production: dose-dependently decreased
IL-1; [18]
  inhibition of hypoxia-induced IL-1 production: 40-50%
[15]
  decrease of MDA level as compared to the ischemia group: 6%
[15]; ischemia group 83 μM
  MDA level: 78 µM

## c1cc2c(cc1[C@H]1OC[C@H]3[C@@H]1CO[C@@H]3c1ccc3c(c1)OCO3)OCO2 [Sesamin, sesamin]
[11]; pig, PAMPA, 100 μg/ml, pH 7.4
  Pe: 0.00 ± 0.01 10^ -6 cm/s

## Cn1c(=O)c2[nH]cnc2n(C)c1=O [Theophylline, theophylline]
[16]
  Known Pe: 0.12 ~ 0.18 10^ -6 cm/s
